Broadly, the Ki is a measure of affinity in units of concentration, obtained from inhibition or displacement.

Common to all, as to assay type: biochemical
For experiment [1], the target named is bovine eNOS (Bos taurus, UniProt P29473). Description: NOS enzyme inhibition assay, eNOS. The conditions noted are these: for Ki: bovine eNOS; for Selectivity n/e: ratio Ki eNOS to Ki nNOS.
The target of experiment [2] is rat nNOS (Rattus norvegicus, UniProt P29476). Description: NOS enzyme inhibition assay, nNOS. The conditions noted are these: for Ki: rat nNOS.
Sequence of rat nNOS (P29476 whole entry): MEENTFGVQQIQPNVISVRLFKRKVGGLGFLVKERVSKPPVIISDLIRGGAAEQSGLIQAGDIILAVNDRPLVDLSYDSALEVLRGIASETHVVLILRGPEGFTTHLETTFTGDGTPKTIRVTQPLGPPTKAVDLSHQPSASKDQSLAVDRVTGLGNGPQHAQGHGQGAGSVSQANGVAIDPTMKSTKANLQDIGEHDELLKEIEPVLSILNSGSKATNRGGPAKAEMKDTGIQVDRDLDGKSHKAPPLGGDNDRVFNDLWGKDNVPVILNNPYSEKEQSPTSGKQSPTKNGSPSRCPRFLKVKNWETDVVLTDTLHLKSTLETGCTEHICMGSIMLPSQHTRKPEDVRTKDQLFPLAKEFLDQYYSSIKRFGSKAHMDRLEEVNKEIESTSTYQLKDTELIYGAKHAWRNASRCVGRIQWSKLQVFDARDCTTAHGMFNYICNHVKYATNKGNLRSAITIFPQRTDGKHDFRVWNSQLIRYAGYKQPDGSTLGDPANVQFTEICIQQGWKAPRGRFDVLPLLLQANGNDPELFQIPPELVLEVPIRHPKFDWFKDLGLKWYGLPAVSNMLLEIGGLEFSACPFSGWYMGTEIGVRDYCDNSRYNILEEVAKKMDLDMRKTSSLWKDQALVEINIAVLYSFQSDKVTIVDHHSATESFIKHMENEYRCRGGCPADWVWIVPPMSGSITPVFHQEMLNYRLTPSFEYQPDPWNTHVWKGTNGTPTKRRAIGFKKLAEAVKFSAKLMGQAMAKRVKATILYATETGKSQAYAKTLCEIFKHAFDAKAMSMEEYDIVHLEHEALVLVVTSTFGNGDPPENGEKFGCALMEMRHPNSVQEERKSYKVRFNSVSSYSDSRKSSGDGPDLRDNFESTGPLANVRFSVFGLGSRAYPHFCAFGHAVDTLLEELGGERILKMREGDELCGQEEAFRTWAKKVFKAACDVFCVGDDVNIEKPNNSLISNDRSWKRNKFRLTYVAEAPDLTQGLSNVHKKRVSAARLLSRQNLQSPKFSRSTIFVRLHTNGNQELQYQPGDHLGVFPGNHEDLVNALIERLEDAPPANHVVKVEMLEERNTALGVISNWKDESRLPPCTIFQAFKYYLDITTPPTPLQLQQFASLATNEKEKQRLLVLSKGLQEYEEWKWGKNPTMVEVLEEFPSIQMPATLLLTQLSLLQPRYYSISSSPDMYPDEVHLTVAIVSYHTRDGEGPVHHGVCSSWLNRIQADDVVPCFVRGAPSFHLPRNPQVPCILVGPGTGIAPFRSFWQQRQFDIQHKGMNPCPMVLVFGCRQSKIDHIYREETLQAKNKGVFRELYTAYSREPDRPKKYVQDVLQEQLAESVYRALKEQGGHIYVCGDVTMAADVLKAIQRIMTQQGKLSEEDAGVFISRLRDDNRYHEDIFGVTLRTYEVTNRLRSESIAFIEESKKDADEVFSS
Experiment [3] deals with murine iNOS (Mus musculus, UniProt P29477). Nature of the experiment: NOS enzyme inhibition assay, iNOS. As to conditions: for Selectivity n/i: ratio Ki iNOS to Ki nNOS.
[4] abbreviates: KM 1.7 μM, Ki = IC50/(1 + [S]/KM), Table 2.
[5] abbreviates: KM 1.3 μM, Ki = IC50/(1 + [S]/KM), Table 2.
The mark [6] stands for this setting: murine iNOS, KM 8.2 μM, Ki = IC50/(1 + [S]/KM), Table 2.

Sequence of bovine eNOS (P29473 whole entry): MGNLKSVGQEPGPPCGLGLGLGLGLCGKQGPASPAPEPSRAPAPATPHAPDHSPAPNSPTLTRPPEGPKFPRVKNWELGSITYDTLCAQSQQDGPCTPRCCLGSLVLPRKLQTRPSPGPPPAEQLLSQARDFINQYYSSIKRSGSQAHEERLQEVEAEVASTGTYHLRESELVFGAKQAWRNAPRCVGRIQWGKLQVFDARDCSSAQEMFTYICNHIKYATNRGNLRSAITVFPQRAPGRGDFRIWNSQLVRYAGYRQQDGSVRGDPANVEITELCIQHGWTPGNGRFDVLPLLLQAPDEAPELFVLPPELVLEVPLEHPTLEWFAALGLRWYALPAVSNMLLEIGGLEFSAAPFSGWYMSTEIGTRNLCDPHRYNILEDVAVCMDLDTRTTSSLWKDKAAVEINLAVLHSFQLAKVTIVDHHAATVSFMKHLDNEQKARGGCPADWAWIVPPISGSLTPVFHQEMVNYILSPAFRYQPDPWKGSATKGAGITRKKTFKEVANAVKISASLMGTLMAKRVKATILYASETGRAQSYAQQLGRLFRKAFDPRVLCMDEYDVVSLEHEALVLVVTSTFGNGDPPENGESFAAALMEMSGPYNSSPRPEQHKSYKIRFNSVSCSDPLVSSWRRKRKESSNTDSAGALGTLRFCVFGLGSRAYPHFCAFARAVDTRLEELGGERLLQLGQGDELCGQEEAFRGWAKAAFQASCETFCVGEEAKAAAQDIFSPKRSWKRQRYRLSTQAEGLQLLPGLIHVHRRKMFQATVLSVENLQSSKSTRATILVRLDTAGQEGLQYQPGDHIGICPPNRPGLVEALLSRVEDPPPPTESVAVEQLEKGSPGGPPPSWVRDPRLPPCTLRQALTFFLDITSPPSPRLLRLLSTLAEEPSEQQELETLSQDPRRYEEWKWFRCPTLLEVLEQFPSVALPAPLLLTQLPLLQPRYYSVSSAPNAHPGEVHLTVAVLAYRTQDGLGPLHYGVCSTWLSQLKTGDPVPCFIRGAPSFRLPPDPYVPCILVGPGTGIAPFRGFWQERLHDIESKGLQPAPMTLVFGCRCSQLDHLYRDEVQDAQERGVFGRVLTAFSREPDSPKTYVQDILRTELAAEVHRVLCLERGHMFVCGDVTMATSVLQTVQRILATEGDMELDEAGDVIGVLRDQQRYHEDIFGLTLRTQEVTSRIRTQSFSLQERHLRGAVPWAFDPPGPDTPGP

Regarding `Cc1cc(N)nc(C[C@@H]2CNC[C@@H]2OCCC/C=C/c2cccc(F)c2)c1` [HH003, 6-(((3R,4R)-4-(((E)-5-(3-fluorophenyl)pent-4-en-1-yl)oxy)pyrrolidin-3-yl)methyl)-4-methylpyridin-2-amine], the “n/e, ratio of Ki (eNOS) to nNOS” value in experiment [1] (Table 2) worked out at 121. Also, the Ki in experiment [1] (setting [4]) came to 77 µM; in experiment [2] (setting [5]) it was 0.637 µM; in experiment [3] (setting [6]), 35.1 µM. Besides, in experiment [3] (Table 2), the “n/i, ratio of Ki (iNOS) to nNOS” value was 55.

As to `COc1ccnc(CCCCO[C@H]2CNC[C@H]2Cc2cc(C)cc(N)n2)c1` [22c], the Ki in experiment [1] (in vitro, Table 1) worked out at 5.47 µM; in experiment [2] (in vitro, Table 1), 0.174 µM; in experiment [3] (in vitro, Table 1) it was 5.44 µM. In experiment [1] (Table 1), the Selectivity n/e was 31.5. Besides, the Selectivity n/i in experiment [3] (Table 1) came to 31.3.

Consider `Cc1cc(N)nc(C[C@@H]2CNC[C@@H]2OCCCOc2cc(F)cc(Cl)c2)c1` [25d], for which the Ki in experiment [1] (in vitro, Table 1) was found to be 9.02 µM; in experiment [2] (in vitro, Table 1), 0.453 µM; in experiment [3] (in vitro, Table 1) it was 41.1 µM. In addition, the Selectivity n/e in experiment [1] (Table 1) was determined as 19.9. For the same molecule, the Selectivity n/i in experiment [3] (Table 1) came out at 90.6.

Regarding `Cc1cc(N)nc(C[C@H]2CNC[C@H]2OCCCCCc2cccc(F)c2)c1.Cl.Cl` [HH004], the “n/e, ratio of Ki (eNOS) to nNOS” value in experiment [1] (Table 2) worked out at 4. The Ki was 34 µM in experiment [1] (setting [4]), 9.06 µM in experiment [2] (setting [5]) and 468 µM in experiment [3] (setting [6]). For the same molecule, the “n/i, ratio of Ki (iNOS) to nNOS” value in experiment [3] (Table 2) was 52.

As for `Cc1cc(N)nc(C[C@@H]2CNC[C@@H]2OCCCCOc2cc(F)cc(F)c2)c1.Cl.Cl` [Ji22], the “n/e, ratio of Ki (eNOS) to nNOS” value in experiment [1] (Table 2) was found to be 122. Moreover, the figures for the Ki in experiment [1] (setting [4]), in experiment [2] (setting [5]) and in experiment [3] (setting [6]) were 146 µM, 1.2 µM and 38.1 µM, respectively. In experiment [3] (Table 2), the “n/i, ratio of Ki (iNOS) to nNOS” value was 32.

As for `Cc1ccnc(CCCCO[C@H]2CNC[C@H]2Cc2cc(C)cc(N)n2)c1` [22b], the Ki was 25.5 µM in experiment [1] (in vitro, Table 1); 1.08 µM in experiment [2] (in vitro, Table 1); 17.9 µM in experiment [3] (in vitro, Table 1). In addition, the Selectivity n/e in experiment [1] (Table 1) came to 23.6. In addition, the Selectivity n/i in experiment [3] (Table 1) is reported as 16.5.

Consider `Cc1cc(N)nc(C[C@@H]2CNC[C@@H]2OCCCOc2cc(F)cc(C(F)(F)F)c2)c1` [25c], for which the inhibition constant (Ki) in experiment [1] (in vitro, Table 1) was 5 µM; in experiment [2] (in vitro, Table 1), 1.67 µM; in experiment [3] (in vitro, Table 1) it was 32.4 µM. The Selectivity n/e in experiment [1] (Table 1) is given as 3.0. In addition, the Selectivity n/i in experiment [3] (Table 1) is given as 19.3.

As to `Cc1cc(N)nc(C[C@@H]2CNC[C@@H]2OCCCCc2ccccn2)c1` [22a], the Ki amounted to 15.9 µM in experiment [1] (in vitro, Table 1); 2.34 µM in experiment [2] (in vitro, Table 1); 12.5 µM in experiment [3] (in vitro, Table 1). The Selectivity n/e in experiment [1] (Table 1) came out at 6.8. Moreover, the Selectivity n/i in experiment [3] (Table 1) is on record as 5.4.

For the molecule `Cc1cc(N)nc(C[C@@H]2CNC[C@@H]2OCCCOc2cc(Cl)cc(C(F)(F)F)c2)c1` [25e], the Ki in experiment [1] (in vitro, Table 1) amounted to 1.38 µM; in experiment [2] (in vitro, Table 1), 0.931 µM; in experiment [3] (in vitro, Table 1), 25.6 µM. Further, in experiment [1] (Table 1), the Selectivity n/e turned out to be 1.5. The Selectivity n/i in experiment [3] (Table 1) was determined as 27.5.

As to `Cc1cc(N)nc(C[C@@H]2CNC[C@@H]2OCCCCCc2cc(F)cc(Cl)c2)c1` [HH002, 6-(((3R,4R)-4-((5-(3-chloro-5-fluorophenyl)pentyl)oxy)pyrrolidin-3-yl)methyl)-4-methylpyridin-2-amine], the “n/e, ratio of Ki (eNOS) to nNOS” value in experiment [1] (Table 2) is reported as 155. The Ki in experiment [1] (setting [4]) is 35.6 µM; in experiment [2] (setting [5]), 0.23 µM; in experiment [3] (setting [6]), 106 µM. Also, in experiment [3] (Table 2), the “n/i, ratio of Ki (iNOS) to nNOS” value is 461.

In the case of `Cc1cc(N)nc(C[C@@H]2CNC[C@@H]2OCCCCCc2cccc(F)c2)c1.Cl.Cl` [HH001], in experiment [1] (Table 2), the “n/e, ratio of Ki (eNOS) to nNOS” value is given as 37. Also, the figures for the Ki in experiment [1] (setting [4]), in experiment [2] (setting [5]) and in experiment [3] (setting [6]) were 33.8 µM, 0.922 µM and 83.8 µM, respectively. The “n/i, ratio of Ki (iNOS) to nNOS” value in experiment [3] (Table 2) is on record as 91.

As for `Cc1cc(N)nc(C[C@@H]2CNC[C@@H]2OCCCOc2ccc(F)c(C(F)(F)F)c2)c1` [25a], the Ki in experiment [1] (in vitro, Table 1) amounted to 5.06 µM; in experiment [2] (in vitro, Table 1), 2.49 µM; in experiment [3] (in vitro, Table 1), 14.6 µM. In experiment [1] (Table 1), the Selectivity n/e stood at 2.0. The Selectivity n/i in experiment [3] (Table 1) was determined as 5.8.

`Cc1cc(N)nc(C[C@H]2CNC[C@H]2OCCC/C=C/c2cccc(F)c2)c1.Cl.Cl` [HH005]: in experiment [1] (Table 2), the “n/e, ratio of Ki (eNOS) to nNOS” value is 4. In addition, the Ki is 69 µM in experiment [1] (setting [4]), 15.4 µM in experiment [2] (setting [5]) and 134 µM in experiment [3] (setting [6]). The “n/i, ratio of Ki (iNOS) to nNOS” value in experiment [3] (Table 2) is reported as 9.

On to `COc1ccnc(/C=C/CCO[C@H]2CNC[C@H]2Cc2cc(C)cc(N)n2)c1` [compound 23], for which the Ki in experiment [1] (in vitro, Table 1) was determined as 2.22 µM; in experiment [2] (in vitro, Table 1) it was 0.351 µM; in experiment [3] (in vitro, Table 1), 2.48 µM. For the same molecule, the Selectivity n/e in experiment [1] (Table 1) amounted to 6.3. Further, the Selectivity n/i in experiment [3] (Table 1) is given as 7.1.

`Cc1cc(N)nc(C[C@@H]2CNC[C@@H]2OCCCOc2cc(C(F)(F)F)cc(C(F)(F)F)c2)c1` [25f]: the Ki in experiment [1] (in vitro, Table 1) worked out at 2.68 µM; in experiment [2] (in vitro, Table 1), 0.516 µM; in experiment [3] (in vitro, Table 1), 12.2 µM. Also, the Selectivity n/e in experiment [1] (Table 1) came out at 5.2. Also, in experiment [3] (Table 1), the Selectivity n/i turned out to be 23.7.

With `Cc1cc(N)nc(C[C@H]2CNC[C@H]2OCCCCNc2ccccn2)c1.Cl.Cl.Cl` [Ji21], the “n/e, ratio of Ki (eNOS) to nNOS” value in experiment [1] (Table 2) was found to be 157. For the same molecule, the Ki in experiment [1] (setting [4]) was determined as 5.67 µM; in experiment [2] (setting [5]), 0.036 µM; in experiment [3] (setting [6]), 0.973 µM. In experiment [3] (Table 2), the “n/i, ratio of Ki (iNOS) to nNOS” value is 27.

For `Cc1cc(N)nc(C[C@@H]2CNC[C@@H]2OCCCCNc2ccccn2)c1.Cl.Cl.Cl` [Ji20], the “n/e, ratio of Ki (eNOS) to nNOS” value in experiment [1] (Table 2) is recorded as 154. The values for the Ki in experiment [1] (setting [4]), in experiment [2] (setting [5]) and in experiment [3] (setting [6]) were 1.39 µM, 0.009 µM and 0.491 µM, respectively. Further, in experiment [1] (comment on Table 2), the “nNOS selectivity over eNOS compared with Ji19” value was “lower nNOS selectivity over eNOS”. The “nNOS potency compared with Ji19” value in experiment [2] (comment on Table 2) was “higher nNOS potency”. For the same molecule, in experiment [3] (Table 2), the “n/i, ratio of Ki (iNOS) to nNOS” value is given as 54.

Take `Cc1cc(N)nc(C[C@@H]2CNC[C@@H]2OCCCCOc2cc(F)cc(Cl)c2)c1.Cl.Cl` [Ji23]: in experiment [1] (Table 2), the “n/e, ratio of Ki (eNOS) to nNOS” value is on record as 37. Moreover, the figures for the Ki in experiment [1] (setting [4]), in experiment [2] (setting [5]) and in experiment [3] (setting [6]) were 4.37 µM, 0.117 µM and 12.4 µM, respectively. Also, the “n/i, ratio of Ki (iNOS) to nNOS” value in experiment [3] (Table 2) turned out to be 106.

Consider `Cc1cc(N)nc(C[C@@H]2CNC[C@@H]2OCCCOc2ccc(F)c(Cl)c2)c1` [25b], for which the Ki in experiment [1] (in vitro, Table 1) was 10.5 µM; in experiment [2] (in vitro, Table 1), 3.34 µM; in experiment [3] (in vitro, Table 1) it was 18.5 µM. In addition, in experiment [1] (Table 1), the Selectivity n/e was 3.1. Also, the Selectivity n/i in experiment [3] (Table 1) stood at 5.5.

Turning to `Cc1cc(N)nc(C[C@@H]2CNC[C@@H]2OCCCCCc2cccc(N)c2)c1` [HH008, 6-(((3R,4R)-4-((5-(3-aminophenyl)pentyl)oxy)pyrrolidin-3-yl)methyl)-4-methylpyridin-2-amine], the “n/e, ratio of Ki (eNOS) to nNOS” value in experiment [1] (Table 2) turned out to be 1117. Besides, in experiment [3] (Table 2), the “n/i, ratio of Ki (iNOS) to nNOS” value is recorded as 619.

Values taken from patent publication US8557552B2, “Selective neuronal nitric oxide synthase inhibitors” (Northwestern University, priority 2011, dated 2013).
